Results published in patent US6319894A, “Complexes and combinations of fetuin with therapeutic agents” (The Picower Institute for Medical Research, priority 1997, dated 2001).
Structures can show the parent of a compound that is named as a salt. Where two headings read alike, the source gives them in different places.

What was measured:
[1] = tested on: LPS-stimulated RAW 264.7 cells (LPS-inducible arginase II activity); test: Urea production (LPS-inducible arginase II functional assay) in LPS-stimulated RAW 264.7 cells; type: cell-based, murine
Protocol: (§1) Typically, cultures were maintained in 150-mm plates with 30 mls culture medium until they reached 80-90% confluence, and were then subjected to different experimental protocols. […] The incubation was continued for another 24 hours before subjecting the cultures to further experiments.
(§2) LPS (endotoxin) was sonicated for 10 minutes and added to culture media to achieve the desired final concentration, typically 100 ng/ml.
Accumulation of urea in the cell culture medium was measured as a functional assay of LPS-inducible arginase II activity. […] The optical density at 535 nm was measured, and urea concentrations were calculated by comparison with OD535 of standard dilutions of urea prepared in culture medium.
Whole-cell lysate preparations were fractionated by sequential ultrafiltration over Amicon Centricon®-100, and Centricon®-30 filters, respectively.

[2] = tested on: LPS-stimulated RAW 264.7 cells (inducible nitric oxide synthase, iNOS); test: NO / nitrite production (Griess reaction, iNOS activity) in LPS-stimulated RAW 264.7 cells; type: cell-based, murine; conditions: for augmentation of CNI-1493 activity (nitrite production): glycoprotein 2.5 μg/ml, CNI-1493 2.0 μM, FIG. 13
Protocol: as §1, §2
Inducible nitric oxide synthase activity (iNOS) was assayed indirectly by measuring NO^2- production. NO^2- was measured by a colorimetric assay based on the Griess reaction. […] The optical density was read at 560 nm after 10 min, and NO^2- concentration was determined with reference to a standard curve by using concentrations of 1.5 to 50 μM sodium nitrite in culture medium.

[3] = tested on: LPS-stimulated RAW 264.7 cells (TNF production); test: TNF production (ELISA) in LPS-stimulated RAW 264.7 cells; type: cell-based, murine; conditions: for inhibition at 2.5 µM: RAW264.7, 4 h
Protocol: as §1, §2

arginine uptake = test: Assay for arginine uptake; type: cell-based
[4] = tested on: LPS-stimulated human PBMCs (TNF production); test: TNF production in LPS-stimulated human PBMCs; type: cell-based; conditions: CNI-1493 50 nM, FIG. 11; for enhancement of CNI-1493 activity (TNF suppression in PBMCs): fetuin 1.0 μg/ml or 10 μg/ml
[5] = Charge at physiological pH; type: physicochemical
[6] = tested on: LPS-stimulated RAW 264.7 cells (LPS-inducible arginase II activity); conditions: pre-treatment; prior studies; cited from earlier work
[7] = tested on: LPS-stimulated RAW 264.7 cells (inducible nitric oxide synthase, iNOS); conditions: pre-treatment; prior studies; cited from earlier work
[8] = tested on: LPS-stimulated RAW 264.7 cells (TNF production); conditions: pre-treatment; prior studies; cited from earlier work
[9] = tested on: human peripheral blood mononuclear cells; conditions: background statement, cited from earlier work
[10] = tested on: mice, endotoxin (LPS) lethality; conditions: in vivo; background statement; cited from earlier work
rat paw edema = conditions: carageenan administration; background statement; cited from earlier work
NO production = conditions: background statement; cited from earlier work
[11] = tested on: LPS-stimulated RAW 264.7 cells (IL-1 β, IL-6, MIP-1α, and MIP-1β); conditions: pre-treatment; prior studies; cited from earlier work
[12] = tested on: LPS-challenged mice (serum TNF); test: Serum TNF levels in LPS-challenged mice; type: in vivo; conditions: fetuin 20 mg/kg pretreatment 1 hour; CNI-1493 2.5 mg/kg ip; LPS 13 mg/kg; serum at four hours; FIG. 12
Protocol: The fetuin pretreatment dose was 20 mg/kg.

[13] = LPS-activated macrophages, CNI-1493 alone
[14] = non-responsive cultures (≥56 hours after 1:4 split), CNI-1493 up to 5 μM

CC(=NNC(=N)N)c1cc(NC(=O)CCCCCCCCC(=O)Nc2cc(C(C)=NNC(=N)N)cc(C(C)=NNC(=N)N)c2)cc(C(C)=NNC(=N)N)c1 [CNI-1493, N,N'-bis[3,5-bis[1-(aminoiminomethyl)hydrazonoethyl]phenyl]decanediamide tetrahydrochloride]
suppression of urea production [1, 13]: dose-dependent suppression of urea production
inhibition at 5 µM ([1]; Mus musculus, RAW264.7, 20 h, read-out: decrease in urea accumulation compared to control): > 95%
inhibition at 2.5 µM ([1]; Mus musculus, RAW264.7, read-out: suppression of urea): > 50%
inhibition at 2.5 µM ([1]; Mus musculus, RAW264.7, read-out: suppression of urea accumulation): < 10%
IC50 ([1]; Mus musculus, RAW264.7, responsive cultures, estimated, read-out: IC50 (concentration of 50% inhibition) with respect to urea production): < 2 µM
effect on level of urea [1, 14]: not reduced
urea concentration, effect of CNI-1493 alone ([1]; partially non-responsive cells, 2.5 μM CNI-1493, FIG. 9): small degree of inhibitory activity
suppression of NO production [2, 13]: dose-dependent suppression
inhibition at 2.5 µM ([2]; Mus musculus, RAW264.7, read-out: suppression of NO): > 50%
inhibition at 2.5 µM ([2]; Mus musculus, RAW264.7, read-out: suppression of NO accumulation): < 10%
IC50 ([2]; Mus musculus, RAW264.7, responsive cultures, stated as approximately the same as the urea IC50, read-out: IC50 with respect to NO production): < 2 µM
effect on level of NO [2, 14]: not reduced
suppression of TNF-α production [3, 13]: dose-dependent suppression
inhibition at 2.5 µM ([3]; Mus musculus, read-out: suppression of TNF accumulation): < 10%
inhibition at 2.5 µM ([3]; Mus musculus, read-out: suppression of TNF production): > 90%
IC50 ([3]; Mus musculus, RAW264.7, responsive cultures, stated as approximately the same as the urea IC50, read-out: IC50 with respect to TNF production): < 2 µM
inhibition of TNF levels in culture supernatants ([3]; low serum precultured (non-responsive) cells, FIG. 1): not responsive
effect on level of TNF [3, 14]: not reduced
IC50 (arginine uptake): ~10 µM
suppression of TNF production in PBMCs by CNI-1493 [4]: active in suppressing TNF production
charge at physiological pH [5]: four positive charges
suppression of LPS-stimulated urea production [6]: suppresses
suppression of LPS-stimulated NO production [7]: suppresses
suppression of LPS-stimulated TNF production [8]: suppresses
inhibition of TNF translation [9]: inhibits TNF (tumor necrosis factor) translation
suppression of production of IL-1, IL-6, MIP-1α and MIP-1β ([9]; human peripheral blood mononuclear cells): suppresses the production of IL-1, IL-6, MIP-1α and MIP-1β
protection against lethal effects of endotoxin [10]: protects mice against lethal effects of endotoxin
anti-inflammatory effect, paw edema and inflammation (rat paw edema): suppression of rat paw edema and inflammation
IC50 (NO production): 5 µM
suppression of several other cytokines such as IL-1 β, IL-6, MIP-1α, and MIP-1β [11]: suppresses

α1-acid glycoprotein: other glycoprotein, net negatively charged at physiological pH
augmentation of CNI-1493 activity (nitrite production) [2]: only fetuin was effective in augmenting CNI-1493 therapeutic activity

B1: glycophorin: other glycoprotein, net negatively charged at physiological pH (protein, UniProt P02724 20-150, looked up)
Glycophorin-A: LSTTEVAMHTSTSSSVTKSYISSQTNDTHKRDTYAATPRAHEVSEISVRTVYPPEEETGERVQLAHHFSEPEITLIIFGVMAGVIGTILLISYGIRRLIKKSPSDVKPLPSPDTDVPLSSVEIENPETSDQ
augmentation of CNI-1493 activity (nitrite production) [2]: only fetuin was effective in augmenting CNI-1493 therapeutic activity

B2: asialofetuin: fetuin glycoprotein treated to remove terminal sialic acid residues (protein, UniProt P12763 19-359, looked up)
Alpha-2-HS-glycoprotein: IPLDPVAGYKEPACDDPDTEQAALAAVDYINKHLPRGYKHTLNQIDSVKVWPRRPTGEVYDIEIDTLETTCHVLDPTPLANCSVRQQTQHAVEGDCDIHVLKQDGQFSVLFTKCDSSPDSAEDVRKLCPDCPLLAPLNDSRVVHAVEVALATFNAESNGSYLQLVEISRAQFVPLPVSVSVEFAVAATDCIAKEVVDPTKCNLLAEKQYGFCKGSVIQKALGGEDVRVTCTLFQTQPVIPQPQPDGAEAEAPSAVPDAAGPTPSAAGPPVASVVVGPSVVAVPLPLHRAHYDLRHTFSGVASVESSSGEAFHVGKTPIVGQPSIPGGPVRLCPGRIRYFKI
modifications: desialylated
notes: fetuin glycoprotein treated to remove terminal sialic acid residues
enhancement of CNI-1493 activity (suppression of urea production) ([1]; non-responsive cultures, glycoprotein 1.0 and 2.5 μg/ml, CNI-1493 2.5 μM, FIG. 10): not nearly as active as fetuin

B3: fetuin: globular protein of about 60-70 kDa, containing 20-25% carbohydrate (protein, UniProt P12763 19-359, looked up)
Alpha-2-HS-glycoprotein: IPLDPVAGYKEPACDDPDTEQAALAAVDYINKHLPRGYKHTLNQIDSVKVWPRRPTGEVYDIEIDTLETTCHVLDPTPLANCSVRQQTQHAVEGDCDIHVLKQDGQFSVLFTKCDSSPDSAEDVRKLCPDCPLLAPLNDSRVVHAVEVALATFNAESNGSYLQLVEISRAQFVPLPVSVSVEFAVAATDCIAKEVVDPTKCNLLAEKQYGFCKGSVIQKALGGEDVRVTCTLFQTQPVIPQPQPDGAEAEAPSAVPDAAGPTPSAAGPPVASVVVGPSVVAVPLPLHRAHYDLRHTFSGVASVESSSGEAFHVGKTPIVGQPSIPGGPVRLCPGRIRYFKI
augmentation of CNI-1493 activity (nitrite production) [2]: only fetuin was effective in augmenting CNI-1493 therapeutic activity

B4: bovine fetuin (Sigma): globular 341-amino acid polypeptide with six internal disulfide bonds and three N-linked and two O-linked oligosaccharide chains (protein, UniProt P12763 19-359, looked up)
Alpha-2-HS-glycoprotein: IPLDPVAGYKEPACDDPDTEQAALAAVDYINKHLPRGYKHTLNQIDSVKVWPRRPTGEVYDIEIDTLETTCHVLDPTPLANCSVRQQTQHAVEGDCDIHVLKQDGQFSVLFTKCDSSPDSAEDVRKLCPDCPLLAPLNDSRVVHAVEVALATFNAESNGSYLQLVEISRAQFVPLPVSVSVEFAVAATDCIAKEVVDPTKCNLLAEKQYGFCKGSVIQKALGGEDVRVTCTLFQTQPVIPQPQPDGAEAEAPSAVPDAAGPTPSAAGPPVASVVVGPSVVAVPLPLHRAHYDLRHTFSGVASVESSSGEAFHVGKTPIVGQPSIPGGPVRLCPGRIRYFKI
enhancement of CNI-1493 activity (TNF suppression in PBMCs) [4]: enhanced, in a dose-dependent fashion
enhancement of CNI-1493 activity (suppression of serum TNF) [12]: greatly enhanced CNI-1493 therapeutic activity

B5: human fetuin glycoprotein: human fetuin glycoprotein (commercially prepared, Sigma) (protein)
chain: MKSLVLLLCLAQLWGCHSAPHGPGLIYRQPNCDDPETEEAALVAIDYINQNLPWGYKHTLNQIDEVKVWPQQPSGELFEIEIDTLETTCHVLDPTPVARCSVRQLKEHAVEGDCDFQLLKLDGKFSVVYAKCDSSPDSAEDVRKVCQDCPLLAPLNDTRVVHAAKAALAAFNAQNNGSNFQLEEISRAQLVPLPPSTYVEFTVSGTDCVAKEATEAAKCNLLAEKQYGFCKATLSEKLGGAEVAVTCTVFQTQPVTSQPQPEGANEAVPTPVVDPDAPPSPPLGAPGLPPAGSPPDSHVLLAAPPGHQLHRAHYDLRHTFMGVVSLGSPSGEVSHPRKTRTVVQPSVGAAAGPVVPPCPGRIRHFKV
enhancement of CNI-1493 activity (TNF suppression in PBMCs) [4]: enhanced
